Results: publication PMC12640667 (Chemmedchem, 2025)
Values joined by “and” are separate entries in the source; they are usually repeats but may differ in a detail not shown here. Equal entries are not always repeated. Where two headings read alike, the source gives them in different places.

What was measured:
[1] = cited from earlier work
Hb [2] = biological target: T1, Hb (Homo sapiens, UniProt P69905); experiment: Oxygen equilibrium curve; format: biochemical; conditions: 2 mM; SS blood lysates; relative to untreated controls
[3] = cited from earlier work; remark: listed apart in the source
Hb [4] = biological target: T1, Hb; experiment: Time-dependent Hb oxygen equilibrium; format: biochemical; conditions: at 3 h; 2 mM; normal whole blood, hematocrit 20%, 37 °C
[5] = system: human cytochrome P450 (CYP) enzymes; experiment: CYP inhibition panel of seven CYP enzymes, pooled human liver microsomes; format: in vitro ADME; conditions: CYP1A2, CYP2C8, CYP2C9, CYP2C19, CYP2D6, CYP3A4, CYP2B6; 0.1–100 µM
Hb [6] = biological target: T1, Hb; experiment: Hb modification; format: binding; conditions: 2 mM; SS blood lysates; percentage fraction of total Hb area

Row | % P50 shift (Hb [2]) | P50 shift (Hb [4]) [%] | inhibition of liver CYP isozymes [5] | % Hb modification (Hb [6]) [%] | SMILES | aq. solubility ([1]; at 25 °C, ref PubChem CID 237,332) | half‐life [3] [h] | aq. solubility ([1]; in water at 25 °C) [mg/mL]
1 | 27% and 27.2 ± 4.9% | 35 | no inhibition | 33.8 ± 11.7 | O=Cc1ccc(CO)o1 [5‐HMF, 5‐hydroxymethylfurfural] | ≈ 400 mg mL^−1 | < 2.2 | –
2 | – | – | – | – | CC(C)n1nccc1-c1ncccc1COc1cccc(O)c1C=O [Voxelotor] | – | > 50 | < 0.1
